Data on 1 substance can be found in patent US20260263563A1, “Method of Treatment of a Thoracolumbar Deformity in a Human Subject with Achondroplasia” (Ascendis Pharma Growth Disorders A/S, priority 2023, published 2026).

Read-outs that look alike come from different tables or passages of the source.

The subject of experiment [1] is prepubertal children with achondroplasia. As to conditions: 50 and 100 μg/kg vs placebo, 52 weeks. The method, then: In the phase 2 study reported in Example 4, X-rays of the hand were taken at the placebo group (6 patients assessed), cohort 3, 50 μg/kg (9 patients assessed) and cohort 4, 100 μg/kg (7 patients assessed) and the Hand Metacarpal/Phalangeal Profile (MCPP) was assessed.

Experiment [2] has the same test system. The conditions noted are these: for AGV: 100 μg CNP-38/kg/week group. Here is the method: The study enrolled a minimum of 60 male and female prepubertal children with ACH aged 2 to 10 years old. The clinical trial is listed on www.clinicaltrials.gov under the ClinicalTrials.gov Identifier: NCT04085523. The objectives of the study were as follow:
This trial is a multicenter trial consisting of two treatment periods.
Height of subjects enrolled in the study of Example 3 was measured using a wall-mounted stadiometer. The same equipment was used at all visits for the same child. All instruments were calibrated as required by local requirements or per instrument manufacturer guidance prior to use.

Navepegritide [Compound (1)]: the hand length entry in experiment [1] is given as “clear trend for dose dependent increase”. The “AGV, LS Mean” value in experiment [2] (6 μg/kg/week, 52 weeks, n = 10, 95% CI [3.34, 4.84], p 0.6004 vs pooled placebo (4.35)) is recorded as 4.09, n = 10 cm/year; in experiment [2] (20 μg/kg/week, 52 weeks, n = 11, 95% CI [3.82, 5.22], p 0.7022 vs pooled placebo), 4.52, n = 11 cm/year; in experiment [2] (50 μg/kg/week, 52 weeks, n = 10, 95% CI [4.43, 5.90], p 0.0849 vs pooled placebo), 5.16, n = 10 cm/year; in experiment [2] (100 μg/kg/week, 52 weeks, n = 11, 95% CI [4.74, 6.11], p 0.0218 vs pooled placebo), 5.42, n = 11 cm/year; in experiment [2] (100 μg/kg/week, 52 weeks, n = 11, 95% CI [4.74, 6.11], p 0.0218 vs pooled placebo, listed as compound (1)), 5.42 cm/year; in experiment [2] (Age < 5 years old, 6 μg/kg/week, n = 3, 95% CI [2.52, 6.10]) it was 4.31, n = 3 cm/year. In addition, the “AGV, LS Mean” value was 4.72, n = 5 cm/year in experiment [2] (Age < 5 years old, 20 μg/kg/week, n = 5, 95% CI [3.30, 6.15]); 5.07, n = 5 cm/year in experiment [2] (Age < 5 years old, 50 μg/kg/week, n = 5, 95% CI [3.62, 6.52]); 5.95, n = 3 cm/year in experiment [2] (Age < 5 years old, 100 μg/kg/week, n = 3, 95% CI [4.03, 7.87]); 3.79, n = 7 cm/year in experiment [2] (Age ≥ 5 years old, 6 μg/kg/week, n = 7, 95% CI [2.87, 4.71]); 4.29, n = 6 cm/year in experiment [2] (Age ≥ 5 years old, 20 μg/kg/week, n = 6, 95% CI [3.43, 5.15]); 5.33, n = 5 cm/year in experiment [2] (Age ≥ 5 years old, 50 μg/kg/week, n = 5, 95% CI [4.39, 6.26]). Also, the “AGV, LS Mean” value in experiment [2] (Age ≥ 5 years old, 100 μg/kg/week, n = 8, 95% CI [4.35, 5.90]) is on record as 5.12, n = 8 cm/year. Moreover, the “Δ Height SDS (ACH-specific height SDS), LS Mean” value in experiment [2] (6 μg/kg/week, n = 10, 95% CI [−0.26, 0.17], p 0.8207 vs pooled placebo (−0.08)) is −0.04, n = 10; in experiment [2] (20 μg/kg/week, n = 11, 95% CI [−0.17, 0.23], p 0.4107 vs pooled placebo), 0.03, n = 11; in experiment [2] (50 μg/kg/week, n = 10, 95% CI [−0.10, 0.32], p 0.1660 vs pooled placebo), 0.11, n = 10; in experiment [2] (100 μg/kg/week, n = 11, 95% CI [0.02, 0.41], p 0.0283 vs pooled placebo), 0.22, n = 11. In addition, the AGV is listed as 5.167 cm/year in experiment [2] (0 to 6 months) and 5.696 cm/year in experiment [2] (time period 6 to 12 months). Moreover, in experiment [2] (46 children switched from placebo or lower dose to 100 μg/kg/week, after one year), the “growth in Open Label Extension” value was “improved growth”.
